26 compounds from ChEMBL document CHEMBL1133064, “1-[2-[(Heteroaryloxy)heteroaryl]carbamoyl]indolines: novel and selective 5-HT2C receptor inverse agonists with potential as antidepressant/anxiolytic agents” (Bioorg Med Chem Lett, 2000) can be followed below.

Assay [1] concerns the target 5-hydroxytryptamine receptor 2B (Homo sapiens, UniProt P41595). In words: Binding affinity towards human cloned 5-HT2B receptor of HEK293 cells by displacement of [3H]5-HT. It is filed as cell-based. Background: In a radioligand displacement assay an active substance lowers the binding of a labelled ligand.
In assay [2] the test system is Rattus norvegicus. The assay can be described thus: Dose required to reverse mCPP induced hypolocomotion by 50% at 7 mg/kg, ip administration 30 min pretest. Format: functional. To be noted: 0.5 h, route intraperitoneal, read-out: ID50 (the source's name).
For assay [3], the target named is Serotonin receptor (2b and 2c) (Homo sapiens) (UniProt P41595+P28335). In words: Selectivity expressed as ratio of serotonin 5-HT2C receptor over serotonin 5-HT2B receptor. It is filed as protein assay.
In assay [4] the target is T1, 5-hydroxytryptamine receptor 2C (Homo sapiens, UniProt P28335).
T1 sequence (P28335 whole entry): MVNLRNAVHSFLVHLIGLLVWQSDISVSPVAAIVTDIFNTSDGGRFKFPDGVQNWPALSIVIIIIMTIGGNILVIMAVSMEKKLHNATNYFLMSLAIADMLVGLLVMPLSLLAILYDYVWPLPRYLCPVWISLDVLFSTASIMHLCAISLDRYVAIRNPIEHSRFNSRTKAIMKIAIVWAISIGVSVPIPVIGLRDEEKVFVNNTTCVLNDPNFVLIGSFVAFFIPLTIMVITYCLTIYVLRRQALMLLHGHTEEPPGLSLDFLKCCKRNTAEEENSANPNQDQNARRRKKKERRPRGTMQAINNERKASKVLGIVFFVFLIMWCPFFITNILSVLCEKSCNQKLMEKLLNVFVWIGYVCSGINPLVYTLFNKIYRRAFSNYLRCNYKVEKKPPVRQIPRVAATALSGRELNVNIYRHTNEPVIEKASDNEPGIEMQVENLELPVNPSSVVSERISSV
The assay can be described thus: Binding affinity towards human cloned 5-hydroxytryptamine 2C receptor of HEK293 cells by displacement of [3H]mesulergine. It is filed as cell-based.

The target of assay [5] is Serotonin 2 receptors; 5-HT2a & 5-HT2c (Homo sapiens) (UniProt P28223+P28335). The assay can be described thus: Selectivity expressed as ratio of serotonin 5-HT2C receptor over serotonin 5-HT2A receptor. It is filed as protein assay.
Chain of Serotonin 2 receptors; 5-HT2a & 5-HT2c (Homo sapiens) (P28223 whole entry, looked up, one chain of several): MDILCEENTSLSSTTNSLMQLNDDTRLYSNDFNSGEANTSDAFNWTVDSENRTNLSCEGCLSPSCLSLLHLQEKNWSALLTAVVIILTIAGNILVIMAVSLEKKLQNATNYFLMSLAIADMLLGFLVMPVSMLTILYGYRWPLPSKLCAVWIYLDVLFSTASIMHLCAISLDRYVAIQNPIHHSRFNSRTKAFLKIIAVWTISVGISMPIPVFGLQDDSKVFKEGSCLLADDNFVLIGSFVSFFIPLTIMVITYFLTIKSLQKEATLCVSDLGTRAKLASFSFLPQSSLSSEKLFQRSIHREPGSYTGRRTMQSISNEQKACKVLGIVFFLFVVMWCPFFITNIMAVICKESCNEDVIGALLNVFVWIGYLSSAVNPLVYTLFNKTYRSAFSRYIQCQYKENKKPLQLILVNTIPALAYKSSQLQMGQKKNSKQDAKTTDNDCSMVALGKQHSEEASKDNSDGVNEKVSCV
In assay [6] the target is 5-hydroxytryptamine receptor 2A (Homo sapiens, UniProt P28223). In words: Binding affinity towards human cloned 5-hydroxytryptamine 2A receptor of HEK293 cells by displacement of [3H]ketanserin. Format: cell-based.
Chain of 5-hydroxytryptamine receptor 2A (P28223 whole entry): as the sequence (P28223 whole entry, looked up, one chain of several) above
Assay [7] concerns Rattus norvegicus. In words: Percent reversal of mCPP induced hypolocomotion after peroral administration at 5 mg/kg in rat. It is filed as functional. To be noted: route oral.

Structures are written as SMILES. pKi: −log10 of the molar value.

Chain of 5-hydroxytryptamine receptor 2B (P41595 whole entry): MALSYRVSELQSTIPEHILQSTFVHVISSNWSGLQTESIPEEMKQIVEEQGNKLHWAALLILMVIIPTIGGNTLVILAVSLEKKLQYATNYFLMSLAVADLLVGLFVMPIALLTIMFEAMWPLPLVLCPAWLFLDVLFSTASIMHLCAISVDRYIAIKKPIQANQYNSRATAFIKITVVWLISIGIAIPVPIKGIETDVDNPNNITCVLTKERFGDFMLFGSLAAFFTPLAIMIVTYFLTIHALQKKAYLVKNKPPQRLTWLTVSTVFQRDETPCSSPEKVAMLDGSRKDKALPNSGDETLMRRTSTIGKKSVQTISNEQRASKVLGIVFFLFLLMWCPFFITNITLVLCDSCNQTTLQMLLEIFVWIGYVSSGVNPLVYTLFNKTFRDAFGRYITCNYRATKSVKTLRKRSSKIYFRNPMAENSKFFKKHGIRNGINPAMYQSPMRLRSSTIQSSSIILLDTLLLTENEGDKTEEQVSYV

Regarding `Cc1cc2c(cc1Cl)N(C(=O)Nc1ccc(Oc3cccnc3C)nn1)CC2`, the pKi (usually the Ki on a negative log10 scale, so that one unit is a factor of ten) was 6.80 in assay [1], 8.70 in assay [4] and 5.80 in assay [6]. The ED50 in the assay on Rattus norvegicus [2] was found to be 1.6 mg/kg. Further, the Selectivity in assay [3] came to 80; in assay [5] it was 800.

Regarding `Cc1cc2c(cc1C(F)(F)F)N(C(=O)Nc1cnc(Oc3cccnc3C)c(Cl)c1)CC2`, the pKi in assay [1] is 7.40; in assay [4], 8.80; in assay [6], 6.60. In addition, the ED50 with Rattus norvegicus [2] is more than 5 mg/kg. Further, the Selectivity came out at 25 in assay [3] and 160 in assay [5].

With `Cc1ncccc1Oc1ccc(NC(=O)N2CCc3cc(Cl)ccc32)cn1`, the pKi in assay [1] is 5.70; in assay [4], 8.20; in assay [6], less than 5.00. In addition, in the assay on Rattus norvegicus [7], the Reversal was 40%. The values for the Selectivity in assay [3] and in assay [5] were 320 and more than 1600, respectively.

As for `Cc1ncccc1Oc1ccc(NC(=O)N2CCc3cc(C(F)(F)F)ccc32)cn1`, the values for the pKi in assay [1], in assay [4] and in assay [6] were 6.20, 8.40 and 5.60, respectively. Moreover, the ED50 in the assay with Rattus norvegicus [2] is 2.1 mg/kg. The Selectivity in assay [3] turned out to be 160; in assay [5], 630.

Turning to `CCc1ncccc1Oc1ccc(NC(=O)N2CCc3cc(C)c(Cl)cc32)cn1`, the pKi in assay [1] was 7.30; in assay [4], 8.70; in assay [6], 6.70. Further, the ED50 in the assay on Rattus norvegicus [2] came to 1.8 mg/kg. The values for the Selectivity in assay [3] and in assay [5] were 25 and 100, respectively.

Regarding `Cc1ncccc1Oc1ccc(NC(=O)N2CCc3c(Br)cccc32)cn1`, the pKi in assay [1] was less than 5.70; in assay [4], 7.80; in assay [6], less than 5.20. In addition, the Reversal with Rattus norvegicus [7] is listed as 3%. Further, the Selectivity in assay [3] is more than 130; in assay [5], more than 400.

Turning to `Cc1ncccc1Oc1ccc(NC(=O)N2CCc3c2cc(C(F)(F)F)c2c3CCO2)cn1`, the pKi is 7.20 in assay [1], 8.90 in assay [4] and 6.30 in assay [6]. Further, the ED50 in the assay with Rattus norvegicus [2] was found to be 9 mg/kg. Besides, the Selectivity amounted to 50 in assay [3] and 400 in assay [5].

With `Cc1cc2c(cc1C(F)(F)F)N(C(=O)Nc1cnc(Oc3cccnc3C)cn1)CC2`, the values for the pKi in assay [1], in assay [4] and in assay [6] were 7.10, 8.70 and 6.20, respectively. Besides, in the assay with Rattus norvegicus [2], the ED50 was determined as 3.6 mg/kg. Moreover, the Selectivity in assay [3] is 40; in assay [5], 320.

Consider `Cc1cc2c(cc1Cl)N(C(=O)Nc1ccc(Oc3cccnc3Cl)nc1)CC2`, for which the pKi in assay [1] is 7.30; in assay [4], 8.90; in assay [6] it was 7.00. Besides, the ED50 with Rattus norvegicus [2] worked out at 4.5 mg/kg. Besides, the figures for the Selectivity in assay [3] and in assay [5] were 40 and 80, respectively.

Take `Cc1cc2c(cc1Cl)N(C(=O)Nc1cnc(Oc3cccnc3C)c(Cl)c1)CC2`: the negative-log Ki (pKi) in assay [1] was 7.70; in assay [4], 9.20; in assay [6], 6.90. The ED50 in the assay with Rattus norvegicus [2] was more than 5 mg/kg. In addition, the results for the Selectivity in assay [3] and in assay [5] were 30 and 200, respectively.

Regarding `Cc1cc2c(cc1Cl)N(C(=O)Nc1cnc(Oc3cccnc3C)nc1)CC2`, the pKi in assay [1] was 7.20; in assay [4] it was 8.50; in assay [6], less than 6.20. Moreover, the ED50 in the assay on Rattus norvegicus [2] is 3.7 mg/kg. Further, the Selectivity in assay [3] was 20; in assay [5] it was more than 200.

With `Cc1ncccc1Oc1ccc(NC(=O)N2CCc3cc(Br)ccc32)cn1`, the pKi in assay [1] was 6.20; in assay [4], 8.50; in assay [6] it was less than 5.40. Besides, the Reversal in the assay with Rattus norvegicus [7] is on record as 10%. Moreover, the Selectivity in assay [3] is 200; in assay [5] it was more than 1300.

Regarding `Cc1ncccc1Oc1ccc(NC(=O)N2CCc3cc(F)c(Cl)cc32)cn1`, the pKi is 6.20 in assay [1], 8.20 in assay [4] and 6.30 in assay [6]. Moreover, the Reversal with Rattus norvegicus [7] is 16%. Moreover, the Selectivity in assay [3] came to 100; in assay [5], 80.

`CCCc1ncccc1Oc1ccc(NC(=O)N2CCc3cc(C)c(Cl)cc32)cn1`: the values for the pKi in assay [1], in assay [4] and in assay [6] were 7.00, 8.80 and 6.80, respectively. Further, in the assay on Rattus norvegicus [7], the Reversal worked out at 18%. Also, the Selectivity in assay [3] stood at 60; in assay [5], 100.

For `Cc1ncccc1Oc1ccc(NC(=O)N2CCc3cc(F)ccc32)cn1`, the pKi in assay [1] is 5.30; in assay [4] it was 7.40; in assay [6] it was less than 5.00. Also, the Reversal with Rattus norvegicus [7] is recorded as 4%. For the same compound, the Selectivity in assay [3] is 130; in assay [5], more than 250.

On to `Cc1ncccc1Oc1ccc(NC(=O)N2CCc3cc(I)ccc32)cn1`, for which the pKi is 6.50 in assay [1], 8.50 in assay [4] and 5.80 in assay [6]. Besides, the Reversal in the assay with Rattus norvegicus [7] was found to be 14%. Besides, the Selectivity in assay [3] was 100; in assay [5], 500.

For `Cc1ncccc1Oc1ccc(NC(=O)N2CCc3c2ccc(Cl)c3Cl)cn1`, the pKi in assay [1] was 6.30; in assay [4], 8.50; in assay [6], 5.50. The Reversal in the assay with Rattus norvegicus [7] stood at 4%. The Selectivity was 160 in assay [3] and 1000 in assay [5].

Consider `Cc1ncccc1Oc1ccc(NC(=O)N2CCc3ccc(Cl)cc32)cn1`, for which the pKi is 6.10 in assay [1], 8.40 in assay [4] and 6.50 in assay [6]. The Reversal in the assay on Rattus norvegicus [7] is 3%. The results for the Selectivity in assay [3] and in assay [5] were 200 and 80, respectively.

Regarding `CCc1cc2c(cc1C(F)(F)F)N(C(=O)Nc1ccc(Oc3cccnc3C)nc1)CC2`, the pKi in assay [1] was 6.90; in assay [4], 8.60; in assay [6], 6.30. Further, the Reversal in the assay on Rattus norvegicus [7] came out at 12%. Besides, the results for the Selectivity in assay [3] and in assay [5] were 50 and 200, respectively.

As for `Cc1cc2c(cc1Cl)N(C(=O)Nc1cnc(Oc3cccnc3C)c(C)c1)CC2`, the pKi in assay [1] is 7.50; in assay [4], 8.80; in assay [6], 6.90. In the assay on Rattus norvegicus [2], the ED50 stood at 0.8 mg/kg. For the same compound, the Selectivity in assay [3] came to 20; in assay [5], 80.

`Cc1cc2c(cc1F)N(C(=O)Nc1ccc(Oc3cccnc3C)nc1)CC2`: the figures for the pKi in assay [1], in assay [4] and in assay [6] were 6.80, 8.80 and 6.10, respectively. The Reversal in the assay with Rattus norvegicus [7] is listed as 46%. For the same compound, the results for the Selectivity in assay [3] and in assay [5] were 100 and 500, respectively.

Turning to `Cc1cc2c(cc1C(F)(F)F)N(C(=O)Nc1ccc(Oc3cccnc3C)nn1)CC2`, the pKi is 6.90 in assay [1], 8.50 in assay [4] and 6.40 in assay [6]. The ED50 in the assay with Rattus norvegicus [2] came to 1.2 mg/kg. The Selectivity in assay [3] is 40; in assay [5], 130.

`Cc1cc2c(cc1C(F)(F)F)N(C(=O)Nc1ccc(Oc3cccnc3C)nc1)CC2` [SB-243213]: the ED50 in the assay on Rattus norvegicus [2] is 1 mg/kg. The Selectivity in assay [3] was 100; in assay [5], 160.

With `Cc1ncccc1Oc1ccc(NC(=O)N2CCc3cc(Br)c(C(F)(F)F)cc32)cn1`, the pKi is 7.00 in assay [1], 8.90 in assay [4] and 6.90 in assay [6]. For the same compound, the ED50 in the assay with Rattus norvegicus [2] was found to be 2 mg/kg. Moreover, the values for the Selectivity in assay [3] and in assay [5] were 80 and 100, respectively.

Regarding `Cc1ncccc1Oc1ccc(NC(=O)N2CCc3cc(Cl)c(Cl)cc32)cn1`, the pKi in assay [1] was 6.50; in assay [4], 8.70; in assay [6] it was 6.60. The Reversal in the assay with Rattus norvegicus [7] came to 32%. In addition, the Selectivity in assay [3] came out at 160; in assay [5], 130.

For `Cc1cc2c(cc1Br)N(C(=O)Nc1ccc(Oc3cccnc3C)nc1)CC2`, the pKi was 7.20 in assay [1], 9.10 in assay [4] and 6.80 in assay [6]. For the same compound, the Reversal with Rattus norvegicus [7] was determined as 49%. Moreover, the Selectivity in assay [3] was found to be 80; in assay [5], 200.
